Experimental data from US9708336B2, “Metallo-beta-lactamase inhibitors” (priority 2014, dated 2017).
Like-named read-outs stand apart in the source and are kept apart here.

Experiments:
NDM-1 = NDM-1 (Klebsiella pneumoniae, UniProt C7C422); experiment: biochemical; assay type: biochemical; conditions: read-out: NDM-1 IC50
VIM-1 = VIM-1 (Pseudomonas aeruginosa (strain ATCC 15692 / DSM 22644 / CIP 104116 / JCM 14847 / LMG 12228 / 1C / PRS 101 / PAO1), UniProt A0A0F7KYQ8); experiment: Enzyme activity: determination of IC50, fluorescence assay with CCF2-FA substrate (VIM-1); assay type: biochemical
IMP-1 = IMP-1 (Serratia marcescens, UniProt P52699); experiment: biochemical; assay type: biochemical; conditions: read-out: IMP-1 IC50
Sequence of IMP-1 (P52699 whole entry, looked up): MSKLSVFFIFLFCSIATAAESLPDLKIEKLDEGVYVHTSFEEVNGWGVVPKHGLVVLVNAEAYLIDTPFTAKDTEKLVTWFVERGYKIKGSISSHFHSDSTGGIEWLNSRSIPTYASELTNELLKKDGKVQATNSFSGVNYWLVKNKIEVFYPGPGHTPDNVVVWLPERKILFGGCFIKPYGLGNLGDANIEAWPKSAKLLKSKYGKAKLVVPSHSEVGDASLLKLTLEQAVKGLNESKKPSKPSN

[1] = test system: Escherichia coli expressing NDM-1 (CLB30005); experiment: Antibiotic potentiation activity: synergistic concentration (MITC95) with imipenem, OD600 growth; assay type: cell-based; conditions: for Escherichia coli MITC95: Escherichia coli expressing NDM-1 (CLB30005), 95% growth inhibition; for Escherichia coli expressing NDM-1 (CLB 30005) MITC95: concentration giving 95% inhibition of bacterial growth
How it was run: (§1)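 Each strain, suspended in saline from overnight colonies and diluted 1:100 into 1.1× CAMHB, is dosed with imipenem at 4 μg/ml (or 1 μg/ml) plus compound, incubated 22–24 h at 35 °C and read by absorbance.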

[2] = test system: Klebsiella pneumoniae expressing VIM-1 (IHMA599644); experiment: as above; assay type: cell-based; conditions: for Klebsiella pneumoniae MITC95: Klebsiella pneumoniae expressing VIM-1 (IHMA599644), 95% growth inhibition; for Klebsiella pneumoniae expressing VIM-1 (IHMA 599644) MITC95: concentration giving 95% inhibition of bacterial growth
How it was run: as §1

[3] = test system: Serratia marcescens expressing IMP-1 (CL5741); experiment: as above; assay type: cell-based; conditions: for Serratia marcescens MITC95: Serratia marcescens expressing IMP-1 (CL5741), 95% growth inhibition; for Serratia marcescens expressing IMP-1 (CL5741) MITC95: concentration giving 95% inhibition of bacterial growth
How it was run: as §1

[4] = NDM-1 enzyme, CCF2-FA fluorescence assay
[5] = IMP-1 enzyme, CCF2-FA fluorescence assay
[6] = fluorescence assay with CCF2-FA substrate
[7] = fluorescence assay with CCF2-FA substrate, read-out: VIM-1 IC50
[8] = VIM-1 enzyme, CCF2-FA fluorescence assay, read-out: VIM-1 IC50

Sequence of NDM-1 (C7C422 whole entry, looked up, species assumed): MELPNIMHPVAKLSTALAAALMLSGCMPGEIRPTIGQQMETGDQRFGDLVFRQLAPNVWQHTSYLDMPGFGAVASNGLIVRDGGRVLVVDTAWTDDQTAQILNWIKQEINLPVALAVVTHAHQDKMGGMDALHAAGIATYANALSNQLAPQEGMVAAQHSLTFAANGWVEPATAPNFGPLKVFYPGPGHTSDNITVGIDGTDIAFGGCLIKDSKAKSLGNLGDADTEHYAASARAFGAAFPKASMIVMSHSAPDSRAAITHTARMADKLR

Compound | IC50 (NDM-1; [4]) [nM] | IC50 (VIM-1; VIM-1 IC50, VIM-1 enzyme, CCF2-FA fluorescence assay) [nM] | IC50 (IMP-1; [5]) [nM] | Escherichia coli MITC95 [1] [µM] | Klebsiella pneumoniae MITC95 [2] [µM] | Serratia marcescens MITC95 [3] [µM] | IC50 (NDM-1; [6]) [nM] | IC50 (VIM-1; [7]) [nM] | IC50 (IMP-1; [6]) [nM] | Escherichia coli expressing NDM-1 (CLB 30005) MITC95 [1] [µM] | Klebsiella pneumoniae expressing VIM-1 (IHMA 599644) MITC95 [2] [µM] | Serratia marcescens expressing IMP-1 (CL5741) MITC95 [3] [µM] | IC50 (VIM-1; [8]) [nM] | IC50 (VIM-1; VIM-1 IC50, fluorescence assay with CCF2-FA substrate) [nM]
CCOCc1ccc(-c2cccc(S(N)(=O)=O)c2-c2nnn[nH]2)cc1 [Example 397, 4′-(Ethoxymethyl)-2-(1H-tetrazol-5-yl)-[1,1′-biphenyl]-3-sulfonamide] | 3.93 | 246 | 37.3 | 3.906 | >200 | 9.375 | – | – | – | – | – | – | – | –
NS(=O)(=O)c1cccc(-c2ccco2)c1-c1nn[nH]n1 [Example 41, 3-furan-2-yl-2-(2H-tetrazol-5-yl)benzenesulfonamide] | – | – | – | – | – | – | 30.4 | 1150 | 247 | 0.3906 | 200 | 9.375 | – | –
COc1cccc(S(N)(=O)=O)c1-c1nnn[nH]1 [Example 257, 3-Methoxy-2-(1H-tetrazol-5-yl)benzenesulfonamide] | 547 | – | 8280 | 1.563 | >200 | 150 | – | – | – | – | – | – | 9230 | –
C[C@H]1NC(=O)O[C@H]1c1ccc(-c2cccc(S(N)(=O)=O)c2-c2nnn[nH]2)cc1 [Example 23, 4′-[(4R,5S)-4-methyl-2-oxo-1,3-oxazolidin-5-yl]-2-(1H-tetrazol-5-yl)biphenyl-3-sulfonamide] | – | – | – | – | – | – | 0.637 | 9.76 | 4.36 | 2.344 | 50 | 2.344 | – | –
NS(=O)(=O)c1cccc(-c2ccc(C(O)C(F)F)cc2)c1-c1nnn[nH]1 (stereo not shown) [Example 24, 4′-(2,2-difluoro-1-hydroxyethyl)-2-(1H-tetrazol-5-yl)biphenyl-3-sulfonamide] | – | – | – | – | – | – | 3.65 | 124 | 17.8 | 1.563 | 150 | 3.125 | – | –
NS(=O)(=O)c1cccc(-c2cscn2)c1-c1nn[nH]n1 [Example 45, 2-(2H-tetrazol-5-yl)-3-(1,3-thiazol-4-yl)benzenesulfonamide] | – | – | – | – | – | – | 85 | 496 | 1210 | 0.7813 | 50 | 25 | – | –
CN(C(=O)c1ccc(-c2cccc(S(N)(=O)=O)c2-c2nn[nH]n2)cc1)C1CCOCC1 [Example 77, N-methyl-3′-sulfamoyl-N-(tetrahydro-2H-pyran-4-yl)-2′-(2H-tetrazol-5-yl)biphenyl-4-carboxamide] | – | – | – | – | – | – | 12 | – | 53.8 | 9.375 | >200 | 28.13 | – | –
NS(=O)(=O)c1nccc(-c2ccc(C(=O)NC3CCOCC3)cc2)c1-c1nnn[nH]1 [Example 186, 4-(2-Sulfamoyl-3-(1H-tetrazol-5-yl)pyridin-4-yl)-N-(tetrahydro-2H-pyran-4-yl)benzamide] | – | – | – | – | – | – | 97.1 | – | 564 | 18.75 | >200 | 100 | – | –
NS(=O)(=O)c1ccc(O)cc1-c1nn[nH]n1 [Example 254] | – | – | – | 3.125 | >200 | >200 | – | – | – | – | – | – | 20000 | –
NS(=O)(=O)c1ccc2ccccc2c1-c1nnn[nH]1 [Example 399, 1-(1H-tetrazol-5-yl)naphthalene-2-sulfonamide] | 117 | – | 15100 | 3.906 | >200 | >200 | – | – | – | – | – | – | – | –
NS(=O)(=O)c1cccc(-c2csc(CN3CCOCC3)c2)c1-c1nn[nH]n1 [Example 103, 3-[5-(morpholin-4-ylmethyl)thiophen-3-yl]-2-(2H-tetrazol-5-yl)benzenesulfonamide] | – | – | – | – | – | – | 49.4 | – | 311 | 9.375 | >200 | 15.63 | – | –
NS(=O)(=O)c1cccc(C#CCN2CCC(=O)CC2)c1-c1nn[nH]n1 [Example 146, 3-[3-(4-oxopiperidin-1-yl)prop-1-yn-1-yl]-2-(2H-tetrazol-5-yl)benzenesulfonamide] | – | – | – | – | – | – | 65.5 | – | 766 | 1.172 | >200 | 50 | – | –
NS(=O)(=O)c1cccc(-c2ncccn2)c1-c1nn[nH]n1 [Example 39, 3-pyrimidin-2-yl-2-(2H-tetrazol-5-yl)benzenesulfonamide] | – | – | – | – | – | – | 346 | – | 2570 | 1.563 | >200 | 50 | – | –
NS(=O)(=O)c1cccc(-c2ccccn2)c1-c1nn[nH]n1 [Example 93, 3-pyridin-2-yl-2-(2H-tetrazol-5-yl)benzenesulfonamide] | – | – | – | – | – | – | 3.17 | 89.8 | 331 | 0.7813 | 25 | – | – | –
CCOC(=O)CCn1cc(-c2cccc(S(N)(=O)=O)c2-c2nn[nH]n2)cn1 [Example 110, ethyl 3-{4-[3-sulfamoyl-2-(2H-tetrazol-5-yl)phenyl]-1H-pyrazol-1-yl}propanoate] | – | – | – | – | – | – | 51.9 | – | 445 | 9.375 | >200 | 28.13 | – | –
NS(=O)(=O)c1cccc(-c2ccc(OCCN3CCCCC3)cc2)c1-c1nn[nH]n1 [Example 89, 4′-(2-piperidin-1-ylethoxy)-2-(2H-tetrazol-5-yl)biphen-3-sulfonamide] | – | – | – | – | – | – | 54.7 | – | 319 | 4.688 | >200 | 12.5 | – | –
CN(C)c1ccc(-c2ccnc(S(N)(=O)=O)c2-c2nn[nH]n2)cn1 [Example 211, 6-(dimethylamino)-3′-(2H-tetrazol-5-yl)-[3,4′-bipyridine]-2′-sulfonamide] | – | – | – | – | – | – | 45.6 | – | 537 | 0.3906 | 200 | 31.25 | – | –
NS(=O)(=O)c1cncc(-c2ccc(CO)cc2)c1-c1nnn[nH]1 [Example 189, 5-(4-(Hydroxymethyl)phenyl)-4-(1H-tetrazol-5-yl)pyridine-3-sulfonamide] | – | – | – | – | – | – | 23.2 | – | 704 | 1.563 | 100 | – | – | 685
NS(=O)(=O)c1cccc(-c2nccs2)c1-c1nn[nH]n1 [Example 35, 2-(2H-tetrazol-5-yl)-3-(1,3-thiazol-2-yl)benzenesulfonamide] | – | – | – | – | – | – | 138 | – | 2680 | 1.953 | 100 | 50 | – | –
Cn1cncc1-c1cccc(S(N)(=O)=O)c1-c1nn[nH]n1 [Example 43, 3-(1-methyl-1H-imidazol-5-yl)-2-(2H-tetrazol-5-yl)benzenesulfonamide] | – | – | – | – | – | – | 310 | – | 2090 | 1.172 | >200 | 75 | – | –
NS(=O)(=O)c1nccc(-c2cccnc2)c1-c1nnn[nH]1 [Example 193, 3′-(1H-tetrazol-5-yl)-[3,4′-bipyridine]-2′-sulfonamide] | – | – | – | – | – | – | 374 | – | 2660 | 0.7813 | 37.5 | 150 | – | –
Cn1ccnc1-c1cccc(S(N)(=O)=O)c1-c1nn[nH]n1 [Example 38, 3-(1-methyl-1H-imidazol-2-yl)-2-(2H-tetrazol-5-yl)benzenesulfonamide] | – | – | – | – | – | – | 281 | – | 2390 | 0.7813 | 200 | 25 | – | –
